Results taken from patent publication US9737622B2, “Compounds modulators of VEGF activity and uses thereof” (ADVANCED ACCELERATOR APPLICATIONS S.A., priority 2009, dated 2017).
“Also recorded” adds a separate entry of the source. Bridge positions count the residues as written; N and C are the ends. Ends that are not written are not given here.

Experiments:
AKT = assay: Western blot of phospho AKT in HUVEC; type: cell-based, human; details: serum deprivation, 15 and 30 min, peptide #3 25-100 ng/ml, Pep-RND 100 ng/ml
Method: Cells were plated in 12-well dishes at 1×10^5 cells/cm^2. On the next day, cells were treated, in starvation medium (EBM-2, heparin 0.1%, BSA 0.1%) with Pep #3 (25-100 ng/ml) or Pep RND (100 ng/ml) peptides for 15 min and 30 min at 37° C. VEGF165 (R & D Systems, Minneapolis, Minn., USA) 25 ng/ml was used as positive control. After treatment, whole cell lysates were obtained by using RIPA lysis buffer (Tris 50 mM pH 7.5, NaCl 150 mM, NP-40 1%, EGTA 1 mM, SDS 0.05%) supplemented with Complete Protease Inhibitors and Phosphate Inhibitors (Pierce Biotechnology, Rockford, Ill.). Cell proteins were then collected after centrifugation and protein content was determined by Bradford method (Bio-Rad, Hercules, Calif.). Proteins were separated by electrophoresis on SDS-polyacrylamide gels and transferred to nitrocellulose membrane (Millipore Corp., Bedford, Mass.) by semi-dry electroblotting (Transblot; Bio-Rad Laboratories, Hercules, Calif.). […]

blood vessel development = assay: Directed In Vivo Angiogenesis Angioreactor (DIVAA); parameters: species or system CD1 mice; details: mice, 21 days
Method: Female CD1 mice (20-25 g) were supplied by Charles-River (Italy) and kept in temperature- and humidity-controlled rooms (22° C., 50%) with lights on from 07:00 to 19:00 h, water and food available ad libitum. All procedures were carried out in accordance with the Italian law (Legislative Decree no. 116, 27 Jan. 1992), which acknowledges the European Directive 86/609/EEC, and were fully compliant with GlaxoSmithKline policy on the care and use of laboratory animal and codes of practice. Furthermore, all efforts were made to minimize the number of animals used and their suffering.
Sterile silicone cylinders closed at one end, called angioreactors (Cultrex, Trevigen, Inc. Helgerman Conn., Gaithersburg), were filled with 20 μL of basement membrane extract (BME) premixed with or without angiogenesis factors (VEGF, FGF) to obtain positive and negative controls respectively. […]
Vessel formation evaluation was performed after 21 days. […] Subsequently, cells were incubated with FITC-Lectin reagent (available in the kit) and then observed by fluorescence microscope (ZEISS, German).
Pro-angiogenic peptide #3 activity was also assayed in an in vivo test using DIVAA (Directed in Vivo Angiogenesis Angioreactor). DIVAA test is performed by implanting angioreactors into the dorsal flank of mice; this allows a quantitative assessment of blood vessel development. […]

ERK1/2 = assay: Western blot of phospho ERK1/2 in HUVEC; type: cell-based, human
Method: Cells were plated in 12-well dishes at 1×10^5 cells/cm^2. On the next day, cells were treated, in starvation medium (EBM-2, heparin 0.1%, BSA 0.1%) with Pep #3 (25-100 ng/ml) or Pep RND (100 ng/ml) peptides for 15 min and 30 min at 37° C. VEGF165 (R & D Systems, Minneapolis, Minn., USA) 25 ng/ml was used as positive control. After treatment, whole cell lysates were obtained by using RIPA lysis buffer (Tris 50 mM pH 7.5, NaCl 150 mM, NP-40 1%, EGTA 1 mM, SDS 0.05%) supplemented with Complete Protease Inhibitors and Phosphate Inhibitors (Pierce Biotechnology, Rockford, Ill.). Cell proteins were then collected after centrifugation and protein content was determined by Bradford method (Bio-Rad, Hercules, Calif.). Proteins were separated by electrophoresis on SDS-polyacrylamide gels and transferred to nitrocellulose membrane (Millipore Corp., Bedford, Mass.) by semi-dry electroblotting (Transblot; Bio-Rad Laboratories, Hercules, Calif.).
The serine-tyrosine-phosphorilated ERK1/2 (polyclonal antibody, Cell Signaling Technology, Inc. Danvers, Mass., USA) and aGAPDH (monoclonal antibody 6C5, Santa Cruz Biotechnology, Inc., Santa Cruz, Calif.) were visualized by specific antibodies, anti-rabbit and anti-mouse horseradish peroxidase-conjugated secondary antibody (Jackson Immunoresearch Laboratories, Inc, Baltimor Pike; Pa., USA) standard chemiluminescence (Pierce Biotechnology, Rockford, Ill.).
VEGF-modulated angiogenesis is largely ERK1/2-dependent, leading to DNA synthesis and cell proliferation. […] The authors therefore investigated whether peptide #3 could also induce ERK and AKT activation like VEGF. […] Scrambled Pep-RND had no effect on ERK1/2 and AKT activation, proving that it is unable to activate intracellular signaling (FIG. 2A).

HUVEC cells [1] = assay: Cell proliferation assay (CyQUANT NF); type: cell-based, human
Method: HUVEC cells were plated at density of 1200 cells/well in 96-well poly-D-lysine-coated microplates (Becton Dickinson, Franklin Lakes, N.J. USA). After 24 hours incubation in starvation medium (EBM-2, heparin 0.1%, BSA 0.1%), cells were treated with VEGF165 25 ng/ml (R & D Systems, Minneapolis, Minn., USA), with Pep #3 (10-25-50-100 ng/ml) or Pep RND (100 ng/ml). Cell proliferation was determined by using CyQUANT® NF Cell Proliferation Assay Kit (Molecular Probes, Invitrogen S.R.L., Milano, Italy) at 24, 48 and 72 hour after treatment. CyQUANT® NF assay is based on cellular DNA content measurement via fluorescent dye binding. Because cellular DNA content is highly regulated, it is closely proportional to cell number. Briefly, medium was removed and cells incubated with CyQUANT NF reagent for 1 hour at 37° C. according to the manufacturer's instructions. Plates were then analyzed by using a microplate reader (L55 Luminescence Spectometrer Perkin Elmer Instruments) (excitation: 485 nm, emission: 520 nm).
To evaluate whether peptide #3 induces cellular proliferation, a cell proliferation assay was performed on HUVEC cells treated, in serum deprivation conditions, with pep #3 (10-25-50-100 ng/ml) or Pep RND (100 ng/ml). After 24, 48 and 72 hours of treatment cell proliferation was measured by CyQUANT® NF Cell Proliferation Assay Kit. […] This effect is evident at 24, 48 and 72 hours. […]

RB protein = assay: Western blot of RB phosphorylation in HUVEC; type: cell-based, human; details: 24 hours, Pep #3 10-100 ng/ml, VEGF165 25 ng/ml, Pep RND 100 ng/ml
Method: FIG. 3—A) HUVEC cells were incubated in starvation medium (EBM-2, 0.1% heparin, 0.1% BSA) alone or in presence of VEGF165 (25 ng/ml) or with indicated concentrations of Pep #3 or Pep RND (100 ng/ml), for 24, 48 and 72 hours at 37° C. in 5% CO2 atmosphere. Cells were then incubated with CyQUANT® NF reagent for 1 hour at 37° C. and fluorescence intensities of quadruplicate samples were measured with a fluorescence microplate reader using excitation at 485 nm and fluorescence detection at 530 nm. In graph values are calculated as % of proliferating cells compared to controls (untreated cells) at 24, 48 and 72 hours. B) ERK1/2 phosphorylation and phospho-RB was evaluated at 24 hr after stimulation with Pep #3 (10-25-50 and 100 ng/ml), VEGF165 (25 ng/ml) and Pep RND (100 ng/ml). Anti-ERK1/2 and anti-GAPDH antibodies were used as loading control
As a marker of cell proliferation, the RB phosphorylation status was also checked in the same experimental conditions. RB protein, in fact, is able to regulate proliferation by controlling cell cycle progression through the restriction point within the G1 and S phases.

HUVEC cells [2] = assay: Caspase 3 fluorimetric assay in serum-starved HUVEC; type: cell-based, human; details: for effect of VEGF on caspase-3 activity (rescue) when peptide is added: in presence of VEGF, 8 hours
Method: Determination of caspase-3 activity was performed by a fluorometric assay based on the proteolytic cleavage of the AMC-derived substrate N-acetil-DEVD-AMC, which yields a fluorescent product.
HUVEC cells were plated in 6-well dishes at 1×10^5 cells/cm^2. On the next day, cells were treated, in starvation medium (EBM-2, heparin 0.1%, BSA 0.1%), with Pep #3 (25-100 ng/ml) or scrambled Pep RND (100 ng/ml) peptides for 8 h at 37° C. VEGF165 (R & D Systems, Minneapolis, Minn., USA), 25 ng/ml, was used as positive control.
After 8 h the cells were processed with 150 μl of Caspase-3 reaction buffer (HEPES pH 7.5 50 mM, EDTA 0.1 mM, NP-40 0.1%, CHAPS 0.1%, DTT 1 mM) and cell proteins collected after centrifugation at 13000 rpm for 15 min at 4° C. Protein concentrations were determined by Bradford method (Bio-Rad, Hercules, Calif.) and 20 μg of lysates were incubated in 96-well plates with 20 μM N-acetil-DEVD-AMC at 37° C. for 3 h.
Samples were analyzed using a microplate reader (L55 Luminescence Spectometrer Perkin Elmer Instruments) (excitation: 360 nm, emission: 440 nm).
To investigate the biological activity of the designed peptides the authors analyzed the activation of caspase 3 in human primary endothelial (HUVEC) cells serum-deprived by means of a caspase-3 fluorimetric assay. It is well known that VEGF act as survival factor for ECs. […] Experiments were performed on serum starved HUVEC treated with designed peptides in presence or absence of VEGF in order to highlight an antagonist or agonist (VEGF-like) activity respectively. The biological activity of the analyzed compounds is reported as percentage of VEGF rescue (FIG. 1). The decrease of the caspase-3 activity following VEGF incubation is set to 100% rescue.

VEGF receptors = assay: Biological and in vivo assays, summary of angiogenic activity; details: summary statement
Description: The compounds have application in diagnosis and treatment of pathologies depending on angiogenesis, especially they can be used in therapy of […].

“KQLLWIRSGDRPWYYTS (prepared by chemical synthesis) [Peptide #3]” was tested, and the “AKT activation (phospho AKT)” value (AKT) was “displayed ERK1/2 and AKT activation”, the “induction of new vessel formation with respect to negative controls” value (blood vessel development; 100 ng/ml, FITC-lectin positive cells) was 3.8 fold and the “blood vessels development / new vessel formation in angioreactors” value (blood vessel development; subcutaneous angioreactors, peptide #3 100 ng/ml) was “Blood vessels development was observed; also recorded: new vessel formation was observed”. For the same sequence, the “ERK1/2 activation after 24 hours of treatment” value (ERK1/2; HUVEC, 24 hours, Pep #3 10-100 ng/ml, VEGF165 25 ng/ml) was “confirmed ERK1/2 activation”, the “ERK1/2 activation (phospho ERK1/2)” value (ERK1/2; HUVEC, serum deprivation, 15 and 30 min, peptide #3 25-100 ng/ml, Pep-RND 100 ng/ml) was “displayed ERK1/2 and AKT activation” and the “cell proliferation at 25 and 50 ng/ml” value (HUVEC cells [1]; 25 and 50 ng/ml, 48 and 72 hours) was “Considerable effects”. For the same sequence, the cell proliferation (HUVEC cells [1]; serum deprivation, 24, 48 and 72 hours, pep #3 10-25-50-100 ng/ml, Pep RND 100 ng/ml) was “able to induce, in a dose dependent manner, cell proliferation”, the RB phosphorylation (RB protein) was “enhanced RB phosphorylation” and the “caspase-3 activity (rescue from apoptosis)” value (HUVEC cells [2]; 8 hour, without added VEGF, peptide #3 25 ng/ml and 100 ng/ml, vs untreated and Pep-RND-treated cells) was “significantly decreased”. The “angiogenic biological activity (pro- or anti-)” value (from here on “angiogenic biological activity”) (VEGF receptors) was “proangiogenic biological activity”.

With “KQCMWIKPHQGQWTCTS (disulfide 3-15 (inferred)) [compound 2]” the “effect of VEGF on caspase-3 activity (rescue) when peptide is added” value (HUVEC cells [2]) was “partially abolished” and the “angiogenic biological activity” value (VEGF receptors) was “antiangiogenic activity”.

With “KQIMWIKPHQGQWIYTS (prepared by chemical synthesis) [compound 1]” the “angiogenic biological activity” value (VEGF receptors) was “antiangiogenic activity”.

With “KQCLWIRSGDRPWYCTS (disulfide 3-15 (inferred)) [Peptide #4]” the “ERK 1/2 activation of VEGF stimulated HUVE cells” value (ERK1/2; 100 ng/mL, 30 min, VEGF 25 ng/ml) was “dramatically reduces”, the “biological effect (ERK1/2 activation) on untreated HUVE cells” value (ERK1/2; 100 ng/mL, 30 min, no VEGF) was “does not show any biological effect” and the “effect of VEGF on caspase-3 activity (rescue) when peptide is added” value (HUVEC cells [2]) was “partially abolished”. For the same sequence, the “angiogenic biological activity” value (VEGF receptors) was “antiangiogenic activity”.
